# Key:
# [1] = test system: 35-70% ammonium sulfate precipitate fraction of the protein extracted from butterfly pea petals; assay: Examination of substrates: acyltransferase activity with butterfly pea petal protein fraction; assay type: biochemical, butterfly pea (Clitoria ternatea); conditions: for acyltransferase activity as acyl acceptor: acyl donor 1-O-p-coumaroyl-β-D-glucose; for acyltransferase activity as acyl donor: acyl receptor preternatin C5, specific activity order: sinapoyl, feruloyl, p-coumaroyl, caffeoyl glucose (highest first)
# Description: (§1) A reaction solution (20 μl) containing 100 mM phosphate buffer (pH 6.5), 0.4 mM anthocyanin (4 μl), 0.5 mM 1-O-acyl-β-D-glucose (4 μl) and an enzyme solution (8 μl) was reacted at 30° C. The reaction was terminated by adding 4 μl of 1M aqueous hydrochloric acid solution. After addition of 24 μl of 5% acetonitrile containing 0.05 M TFA, the reaction solution was filtered with Millex-LH filter (Millipore) and then analyzed by HPLC by feeding a 10 μl aliquot.
# (§2) HPLC analysis of anthocyanin acyltransferase reaction products were performed with Develosil ODS-UG-5 column (3.0 i.d.×250 mm; Nomura Chemical) at a column temperature of 35° C. Against an initial solvent that was 0.05 M trifluoroacetate (TFA)-containing 5% acetonitrile (MeCN) aqueous solution, 0.05 M TFA-containing 40% MeCN was added with a linear concentration gradient from 14 to 86% (20 min) and the reaction products were eluted at a flow rate of 0.5 ml/min. The reaction products were detected with PDA and their molecular weights were confirmed by LC-MS/MS.
# In order to detect an enzyme activity of transferring an aromatic acyl group to the sugar residue of flavonoids using 1-O-acyl-β-D-glucose as an acyl donor, various types of 1-O-acyl-β-D-glucose and anthocyanin were examined. Briefly, enzyme activities were measured using 35-70% ammonium sulfate precipitate fraction of the protein extracted from butterfly pea petals as an enzyme solution, preternatin C5 as an acyl receptor, and various 1-O-acyl-β-D-glucoses as an acyl donor. […] Specific activity was higher in the following order: 1-O-sinapoyl-β-D-glucose, 1-O-feruloyl-β-D-glucose, 1-O-p-coumaroyl-β-D-glucose and 1-O-caffeoyl-β-D-glucose. Further, enzyme activities were measured using 1-O-p-coumaroyl-β-D-glucose as an acyl donor and various types of anthocyanin as an acyl acceptor.
# [2] = Enzyme activity of recombinant CtSCPL1 protein expressed in Baculovirus-Sf9 insect cells; assay type: biochemical, butterfly pea (Clitoria ternatea)
# Description: as §1, §2
# Sf9 cells monolayer-cultured in complete Grace medium or Sf900II-SFM serum free medium (Gibco) in 6-well plates (3×10^6 cells) were infected with the recombinant virus at a multiplicity of infection (MOI) of 5-10. […] Enzyme reaction was performed using the thus concentrated protein solution, and the reaction product was analyzed by HPLC and LC-MS. […]
# [3] = UDP-glucose:hydroxycinnamate 1-O-glucosyltransferase activity of recombinant proteins from E. coli; assay type: biochemical; conditions: against all four types of hydroxycinnamic acid used
# Description: The transformed E. coli was shaking-cultured overnight in 3 ml of LB medium containing 50 μg/ml kanamycin and 34 μg/ml chloramphenicol. This culture broth (500 μl) was inoculated into LB medium (50 ml) and shaking-cultured until absorbance at 600 nm reached 0.4. Then, isopropyl-β-D-thiogalactoside (IPTG) was added to give a final concentration of 0.4 mM. The cells were shaking-cultured at 25° C. for 16 hr and then harvested by refrigerated centrifugation (8000 rpm, 4° C., 20 min). CtGT11-4 protein was partially purified from the cells using Ni-NTA mini-column according to the method recommended by the manufacturer. […]
# For measuring enzyme activity, a 30 μl reaction solution containing 100 mM potassium phosphate buffer (pH 7.4), 30 pmole of UDP-glucose, 30 pmole of hydroxycinnamic acid and 15 μl of recombinant protein solution was reacted at 30° C. […] The enzyme reaction products were analyzed by reversed-phase high performance liquid chromatography (Shiseido NanoSpace system) using Develosil C30-UG-5 (1.5 i.d.×250 mm). […] The eluted materials were detected with a PDA detector, and the resultant data were analyzed to thereby quantitatively determine 1-O-acyl-β-D-glucose. […]
# LeGT13-20 and LeGT13-30 genes were expressed using pET30Ek/LIC System (Novagen). […] Resultant several clones were analyzed to confirm the nucleotide sequences thereof, and then transformed into E. coli BL21-CodonPlus(DE3)-RP. […]
molecule,measurement,setting,value
"O=C(O)CC(=O)OC[C@H]1O[C@@H](Oc2cc3c(O)cc(O)cc3[o+]c2-c2cc(O[C@@H]3O[C@H](CO)[C@@H](O)[C@H](O)[C@H]3O)c(O)c(O[C@@H]3O[C@H](CO)[C@@H](O)[C@H](O)[C@H]3O)c2)[C@H](O)[C@@H](O)[C@@H]1O [ternatin C5, Delphinidin 3-(6-malonyl)glucoside 3′,5′-diglucoside]",acyltransferase activity as acyl acceptor,[1],acyltransferase activity was detected
O=C(/C=C/c1ccc(O)c(O)c1)O[C@@H]1O[C@H](CO)[C@@H](O)[C@H](O)[C@H]1O [1-O-caffeoyl-β-D-glucose],acyltransferase activity as acyl donor,[1],acyltransferase activity was detected
COc1cc(/C=C/C(=O)O[C@@H]2O[C@H](CO)[C@@H](O)[C@H](O)[C@H]2O)cc(OC)c1O [1-O-sinapoyl-β-D-glucose],acyltransferase activity as acyl donor,[1],acyltransferase activity was detected
"OC[C@H]1O[C@@H](Oc2cc3c(O)cc(O)cc3[o+]c2-c2cc(O[C@@H]3O[C@H](CO)[C@@H](O)[C@H](O)[C@H]3O)c(O)c(O[C@@H]3O[C@H](CO)[C@@H](O)[C@H](O)[C@H]3O)c2)[C@H](O)[C@@H](O)[C@@H]1O [preternatin C5, delphinidin 3,3′,5′-triglucoside]",acyltransferase activity as acyl acceptor,[1],acyltransferase activity was detected
COc1cc(/C=C/C(=O)O[C@@H]2O[C@H](CO)[C@@H](O)[C@H](O)[C@H]2O)ccc1O [1-O-feruloyl-β-D-glucose],acyltransferase activity as acyl donor,[1],acyltransferase activity was detected
O=C(/C=C/c1ccc(O)cc1)O[C@@H]1O[C@H](CO)[C@@H](O)[C@H](O)[C@H]1O [1-O-p-coumaroyl-β-D-glucose],acyltransferase activity as acyl donor,[1],acyltransferase activity was detected
O=C(O)CC(=O)OCC1OC(Oc2cc3c(O)cc(O)cc3[o+]c2-c2cc(O)c(O)c(OC3OC(CO)C(O)C(O)C3O)c2)C(O)C(O)C1O (stereo not shown) [delphinidin 3-(6-malonyl)glucoside-3′-glucoside],acyltransferase activity as acyl acceptor,[1],acyltransferase activity was detected
"CtSCPL1: butterfly pea SCPL acyltransferase, 487 amino acid residues, SEQ ID NO: 2 (protein, Clitoria ternatea cv. Double Blue; Amino acid sequence of 1-O-acyl-Beta-D-glucose anthocyanin-O-acyltansferase) MAAFSSTHSACGILLLPLVVSSLICFQLASCGTIVEFLPGFDGPLPFVLETGYVGVGEGEDVQVFYYFVESENNPNEDPLMLWLTGGPGCSAFSGLALEIGPLIFKREEYNGGLPNLILRPHSWTKVSSIIFVDLPVSTGFTYARTDAAAQRSDWTLVHHAHEFLRKWLIDHPKFLQNELYIGGDSYSGIPIPVIVQEISQENEKGIQPWINLQGYILGNAITTRREKGYSIPFAHGMALISDELYESLRKNCKGEYLNVDPENVLCSRDIDSYSKATSRISFAHILERTCNSGDIKTSLRRSTIQRHHTKKFLNTNLKLPPLTCRTYANFQCGLWANDDNVRSALHIHKGSIGEWHRCSIRLPFTSDIPNSFEYHVNLSRKGYYRSLIYSGDHDMMVPFLGTQAWIRSLNYSIVDDWRPWNTNGQVAGYTRTYSNRMTYATIKGGGHTAPEFKPEECFAMYSRWISKRPLYENNTMSSYTNLASIL",3′AT activity,[2]; substrates preternatin C5 or delphinidin 3-(6-malonyl)glucoside-3′-glucoside and 1-O-feruloyl-β-D-glucose,3′AT activity was confirmed
same,3′AT activity,[2]; substrates ternatin C5 and 1-O-p-coumaroyl-β-D-glucose,3′AT activity was also recognized
"LeGT13-20: lobelia 1-O-acyl-β-D-glucose synthase, 486 amino acid residues, SEQ ID NO: 16 (protein, Lobelia erinus cv.Riviera Midnight Blue; Amino acid sequence of UDP-glucose hydroxycinnamic acid 1-O-glucosyltransferase) MGSLQGTTTVENLTHVFLVSFPGQGHVNPLLRLGKILAFKGLLVTFSAPEMVGEIIKGANKYISDDELTPIGDGMIRFEFFSDGLGNTKEDNSLRGNMDLYMPQLATFAKKSLSEILIKHEKHGRPVACLINNPFIPWISELAEEFNIPSAVLWVQSCASFSAYYHYHHGLVPFPTENEPERDVQLPNMPLLKYDEIPGFLLPSSPYGFLRRAILGQFKLLSKPICILVESFQELENDCINYLSTLCPIKPIGPLFSNPSVRNGSSIRGDFMKVEDCIDWLNTRADSSVVYVSFGSIVYVKQEQITEIARGLADSGLSFLWAFKQPGIDMGLTPPSLPDGFLEEVKGRGKVVEWCSQEAVLSHPAVSCFMSHCGWNSTMEALSSGVPVAAFPIWGDQVTDAKFLVDEFKVGIRMCRGEADINKKVVTREEIARCLLAATSGPKAEELKRNALKWKKAAADSVGAGGSSDRNLEEFVGSIRKDVVGH",glucosyltransferase activity,[3],glucosyltransferase activity was confirmed

# From patent publication US20090288225A1, “Novel Aromatic Acyltransferase Genes” (Aomori Prefecture, priority 2006, published 2009)
